Where a SMILES comes first, the peptide text is derived from it. The star is where a group is joined. Cbz = O=C(OCc1ccccc1)*
Tests used:
Slug = test: Western blot of Slug in GBM cells; format: cell-based, human; details: MG132 10 μM 30 mins pretreatment, then GMI 0.6 μM 3 h
Protocol: FIGS. 10A-10D show GMI induces Slug degradation in GBM cells. […] The mRNA level of Slug was measured using qPCR.
Cell extracts (30 μg) were then subjected to one-dimensional SDS-PAGE (8-12% separating gel) electrophoresis and were transferred to a PVDF membrane (0.22 μm, Millipore) by using a transfer apparatus (Bio-Rad, Richmond, CA). Membranes were blocked with 5% BSA in TBST buffer containing 0.05% Tween20. The expressions of proteins were identified by indicated antibodies. The expression of tubulin as an internal control. The indicated bands on the PVDF membrane were quantified using densitometry analysis by ImageJ software (National Institute of Mental Health, Bethesda, MD) and compared to results of the control group.

[1] = Rat weight and serum AST, ALT, BUN, creatinine in C6-bearing rats; format: in vivo; details: rat sera, TMZ 30 mg/kg ip
Protocol: FIGS. 7A-7F show GMI combined with TMZ suppressed tumorigenesis in C6-bearing rats. FIG. 7A indicates Schematic design of the in vivo post combined therapy of GMI and TMZ in C6-bearing rats. The tumor volume in rat received GMI (0.6 mg/kg) and […]. […] FIG. 7C indicates the tumor volume was measured; each bar represents the mean+SD. […] FIGS. 7E and 7F show the AST and ALT (hepatic function: shown in FIG. 7E) as well as BUN and creatinine (renal function; shown in FIG. 7F) of rat sera were analyzed.
Five days after tumor implantation surgery, rats were randomly assigned into four group (6 animals/group) to be treated with different drugs every other day for 4 times, i.e. on day 5, 7, 9, 11. • Group 1 (control): intravenous administration of saline. • Group 2 (GMI): intravenous (iv) administration of GMI (0.6 mg/Kg) • Group 3 (TMZ): intraperitoneal (ip) administration of TMZ (30 mg/Kg) • Group 4 (GMI+TMZ): combination of GMI (iv, 0.6 mg/Kg) and TMZ (ip, 30 mg/Kg)
MRI imaging acquisition was performed on day 13 and a half of the animals in each group were sacrificed on day 15 for immunohistochemistry study. After tumor volume was measured, specimens from the animals in the histology group were subjected to other histological evaluations described as follows.

SMILES | GMI-induced Slug degradation (Slug) | AST/ALT ([1]; GMI 0.6 mg/kg iv) | BUN [1]
CC(C)C[C@@H](C=O)NC(=O)[C@H](CC(C)C)NC(=O)[C@H](CC(C)C)NC(=O)OCc1ccccc1 [MG132] (Cbz-Leu-Leu-Leu-aldehyde) | counteracted GMI-induced Slug degradation |  | 
Cn1nnc2c(C(N)=O)ncn2c1=O [TMZ, Temozolomide] |  | increased AST/ALT expression | slightly increased BUN expression

From US20240216465A1, “METHOD FOR TREATING REFRACTORY BRAIN TUMOR” (National Yang Ming Chiao Tung University, priority 2023, published 2024)
